Results taken from patent publication US8835476B2, “Synthesis of novel antimicrobials” (priority 2005, dated 2014).
≈ marks a conversion by molar mass, not a printed value. Like-named read-outs stand apart in the source and are kept apart here.

Legend:
Format in all cases: cell-based
Pr. stuartii ATCC 33672 = assay: Broth microdilution MIC, ATCC strains; settings: Providencia stuartii
How it was run: (§1)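 NCCLS M7-A6 broth microdilution, inoculum 5×10^5 CFU/ml, with DMSO controls; read after 16 to 20 hours at 35° C in ambient air. MIC is lowest concentration inhibiting visible growth; clinical strains were outpatient urinary isolates from NAUTICA, alongside ATCC reference strains.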

E. faecium ATCC 35667 = assay: Broth microdilution MIC, ATCC strains; settings: Enterococcus faecium, ATCC35667, read-out: MIC (growth inhibition, microdilution method)
How it was run: as §1

MRSA ATCC 33591 = assay: Broth microdilution MIC, ATCC strains; settings: Staphylococcus aureus, read-out: MIC (growth inhibition, microdilution method)
How it was run: as §1

S. simulans ATCC 27848 = assay: Broth microdilution MIC, ATCC strains; settings: Staphylococcus simulans, ATCC27848, read-out: MIC (growth inhibition, microdilution method)
How it was run: as §1

P. vulgaris ATCC 49132 = assay: Broth microdilution MIC, ATCC strains; settings: Proteus vulgaris
How it was run: as §1

[1] = test system: S. maltophilia ATCC 13637; assay: Broth microdilution MIC, ATCC strains; settings: Stenotrophomonas maltophilia
How it was run: as §1

[2] = test system: S. epidermidis ATCC 14990; assay: Broth microdilution MIC, ATCC strains; settings: Staphylococcus epidermidis
How it was run: as §1

S. warneri ATCC 27836 = assay: Broth microdilution MIC, ATCC strains; settings: Staphylococcus warneri
How it was run: as §1

E. faecalis ATCC 29212 = assay: Broth microdilution MIC, ATCC strains; settings: for MIC: Enterococcus faecalis, read-out: MIC (growth inhibition, microdilution method)
How it was run: as §1

S. marcescens ATCC 8100 = assay: Broth microdilution MIC, ATCC strains; settings: Serratia marcescens
How it was run: as §1

[3] = test system: Ps. aeruginosa clinical isolates; assay: Broth microdilution MIC, clinical isolate strains (NAUTICA); settings: unit assumed
How it was run: as §1

E. coli BL21 cells = assay: Inhibition of E. coli growth in liquid culture (OD 600 nm); settings: FIG. 11; for growth inhibitory activity, E. coli liquid culture: only at the highest concentration tested (1 mM)
Experimental: Compounds to be tested were dissolved in ethanol or DMSO and subsequently diluted into of Luria broth. The final concentration of ethanol (2%, v/v) or DMSO (1%, v/v) had minimal effect on growth rate. Culture tubes were subsequently inoculated with E. coli BL21 or D22 cells to an optical density (at 600 nm) of 0.01 and incubated on a rotary shaker at 37° C. The optical density at 600 nm of 100 μl samples was measured at indicated time points.

[4] = ATCC33672, Pr. stuartii ATCC 33672, read-out: MIC (growth inhibition, microdilution method)
[5] = ATCC49132, read-out: MIC (growth inhibition, microdilution method)
[6] = ATCC13637, S. maltophilia ATCC 13637, read-out: MIC (growth inhibition, microdilution method)
[7] = ATCC27836, S. warneri ATCC 27836, read-out: MIC (growth inhibition, microdilution method)
[8] = ATCC29212, E. faecalis ATCC 29212
[9] = ATCC29212, E. faecalis, ATCC number not given
[10] = ATCC8100, read-out: MIC (growth inhibition, microdilution method)
[11] = ATCC33672, read-out: MIC (growth inhibition, microdilution method)
[12] = ATCC14990, S. epidermidis ATCC 14990, read-out: MIC (growth inhibition, microdilution method)
[13] = ATCC49132, P. vulgaris ATCC 49132, read-out: MIC (growth inhibition, microdilution method)
[14] = ATCC8100, S. marcescens ATCC 8100, read-out: MIC (growth inhibition, microdilution method)
[15] = E. faecalis, ATCC number not given
[16] = Table 4B, each table row is one clinical isolate

SMILES	MIC (Pr. stuartii ATCC 33672; [4])	MIC (E. faecium ATCC 35667)	MIC (S. simulans ATCC 27848)	MIC [1, 6]	MIC (S. warneri ATCC 27836; [7])	MIC (E. faecalis ATCC 29212; [8])	MIC (E. faecalis ATCC 29212; [9])	MIC (MRSA ATCC 33591; MRSA ATCC 33591)	MIC [2, 12]	MIC (P. vulgaris ATCC 49132; [13])	MIC (S. marcescens ATCC 8100; [14])	MIC, PS. AER [3, 16]	other results
O=C(O)c1cc(-c2nnn[nH]2)c(C(=O)O)s1 [DNM-111, 3-(1H-tetrazol-5-yl)thiophene-2,5-dicarboxylic acid]	256 µg/mL (≈ 1070 µM)	8 µg/mL (≈ 33.3 µM)	256 µg/mL (≈ 1070 µM)	64 µg/mL (≈ 266 µM)	256 µg/mL (≈ 1070 µM)	8 µg/mL (≈ 33.3 µM)	8 µg/mL (≈ 33.3 µM)						MIC (MRSA ATCC 33591): 128 µg/mL (≈ 533 µM); MIC (P. vulgaris ATCC 49132; [5]): 128 µg/mL (≈ 533 µM); MIC ([2]; ATCC14990, read-out: MIC (growth inhibition, microdilution method)): 128 µg/mL (≈ 533 µM); MIC (S. marcescens ATCC 8100; [10]): 128 µg/mL (≈ 533 µM); MIC, PS. AER ([3]; clinical isolates, one table line per isolate): 128 µg/mL (≈ 533 µM)
Cn1nnc(-c2cc(C(=O)O)sc2C(=O)O)n1 [DNM-112, 3-(2-Methyl-2H-tetrazol-5-yl)-thiophene-2,5-dicarboxylic acid]		8 µg/mL (≈ 31.5 µM)	8 µg/mL (≈ 31.5 µM)		64 µg/mL (≈ 252 µM)	8 µg/mL (≈ 31.5 µM)	8 µg/mL (≈ 31.5 µM)	16 µg/mL (≈ 62.9 µM)	16 µg/mL (≈ 62.9 µM)				MIC (Pr. stuartii ATCC 33672; [11]): > 256 µg/mL; MIC (P. vulgaris ATCC 49132; [5]): > 256 µg/mL; MIC ([1]; ATCC13637, read-out: MIC (growth inhibition, microdilution method)): > 256 µg/mL; MIC (S. marcescens ATCC 8100; [10]): > 256 µg/mL
COC(=O)c1cc(-c2nnn(C)n2)c(C(=O)OC)s1 [DNM-114, 3-(2-methyl-2H-tetrazol-5-yl)-thiophene-2,5-dicarboxylic acid dimethyl ester]		8 µg/mL (≈ 28.3 µM)	256 µg/mL (≈ 907 µM)	64 µg/mL (≈ 227 µM)		8 µg/mL (≈ 28.3 µM)	8 µg/mL (≈ 28.3 µM)	256 µg/mL (≈ 907 µM)	64 µg/mL (≈ 227 µM)				MIC (Pr. stuartii ATCC 33672; [11]): 128 µg/mL (≈ 453 µM); MIC (P. vulgaris ATCC 49132; [5]): 128 µg/mL (≈ 453 µM); MIC (S. warneri ATCC 27836; ATCC27836, read-out: MIC (growth inhibition, microdilution method)): 128 µg/mL (≈ 453 µM); MIC (S. marcescens ATCC 8100; [10]): 128 µg/mL (≈ 453 µM)
O=C(O)c1cc(-c2nn[nH]n2)cs1 [DNM-116, 4-(2H-Tetrazol-5-yl)-thiophene-2-carboxylic acid]	32 µg/mL (≈ 163 µM)	8 µg/mL (≈ 40.8 µM)	> 32 µg/mL	16 µg/mL (≈ 81.6 µM)	32 µg/mL (≈ 163 µM)	8 µg/mL (≈ 40.8 µM)	8 µg/mL (≈ 40.8 µM)	> 32 µg/mL	16 µg/mL (≈ 81.6 µM)	32 µg/mL (≈ 163 µM)	16 µg/mL (≈ 81.6 µM)		
O=C(O)c1cc(-c2nnn[nH]2)c(-c2ccc(F)cc2)s1 [DNM-121, 5-(4-Fluoro-phenyl)-4-(1H-tetrazol-5-yl)-thiophene-2-carboxylic acid]	64 µg/mL (≈ 220 µM)	8 µg/mL (≈ 27.6 µM)	64 µg/mL (≈ 220 µM)	64 µg/mL (≈ 220 µM)	64 µg/mL (≈ 220 µM)	8 µg/mL (≈ 27.6 µM)	8 µg/mL (≈ 27.6 µM)	64 µg/mL (≈ 220 µM)	64 µg/mL (≈ 220 µM)	64 µg/mL (≈ 220 µM)	64 µg/mL (≈ 220 µM)		
Cn1nnc(-c2cc(C(=O)O)sc2-c2ccc(F)cc2)n1 [DNM-123, 5-(4-fluorophenyl)-4-(2-methyl-2H-tetrazol-5-yl)thiophene-2-carboxylic acid]	> 8 µg/mL	8 µg/mL (≈ 26.3 µM)	> 8 µg/mL	≤ 0.5 µg/mL	> 8 µg/mL	8 µg/mL (≈ 26.3 µM)	8 µg/mL (≈ 26.3 µM)	> 8 µg/mL	4 µg/mL (≈ 13.1 µM)	> 8 µg/mL	8 µg/mL (≈ 26.3 µM)		MIC (growth inhibition, microdilution method) (E. faecalis ATCC 29212; E. faecalis ATCC 29212): 8 µg/mL (≈ 26.3 µM); MIC (growth inhibition, microdilution method) (E. faecalis ATCC 29212; [15]): 8 µg/mL (≈ 26.3 µM); growth inhibitory activity, E. coli liquid culture (E. coli BL21 cells): Substantial growth inhibitory activity
CCOC(=O)c1cc(-c2nnn[nH]2)c(-c2ccc(F)cc2)s1 [DNM-124, 5-(4-Fluoro-phenyl)-4-(1H-tetrazol-5-yl)-thiophene-2-carboxylic acid ethyl ester]	> 64 µg/mL	> 64 µg/mL	> 64 µg/mL	64 µg/mL (≈ 201 µM)	> 64 µg/mL	> 64 µg/mL	> 64 µg/mL	> 64 µg/mL	64 µg/mL (≈ 201 µM)	> 64 µg/mL	> 64 µg/mL		growth inhibitory activity, E. coli liquid culture (E. coli BL21 cells): Substantial growth inhibitory activity
CCOC(=O)c1cc(-c2nnn(C)n2)c(-c2ccc(F)cc2)s1 [DNM-125, ethyl 5-(4-fluorophenyl)-4-(2-methyl-2H-tetrazol-5-yl)thiophene-2-carboxylate]	> 16 µg/mL	> 16 µg/mL	> 16 µg/mL	> 16 µg/mL	> 16 µg/mL	> 16 µg/mL	> 16 µg/mL	> 16 µg/mL	> 16 µg/mL	> 16 µg/mL	> 16 µg/mL	> 16 µg/mL	
Fc1ccc(-c2cc(-c3nnn[nH]3)c(-c3ccc(F)cc3)s2)cc1 [DNM-131, 5-(2,5-Bis(4-fluorophenyl)thiophen-3-yl)-1H-tetrazole]	> 32 µg/mL	> 32 µg/mL	> 32 µg/mL	> 32 µg/mL	> 32 µg/mL	> 32 µg/mL	32 µg/mL (≈ 94 µM)	> 32 µg/mL	> 32 µg/mL	> 32 µg/mL	> 32 µg/mL	> 32 µg/mL	MIC (growth inhibition, microdilution method) (E. faecalis ATCC 29212; [15]): >32 µg/mL; growth of E. coli in liquid culture (E. coli BL21 cells; 10 μM): partial inhibition; growth of E. coli in liquid culture (E. coli BL21 cells; 0.1 or 1 mM): no growth
Cn1nnc(-c2cc(-c3ccc(F)cc3)sc2-c2ccc(F)cc2)n1 [DNM-132, 5-(2,5-bis(4-fluorophenyl)thiophen-3-yl)-2-methyl-2H-tetrazole]	> 16 µg/mL	> 16 µg/mL	> 16 µg/mL	> 16 µg/mL	> 16 µg/mL	> 16 µg/mL	> 16 µg/mL	> 16 µg/mL	> 16 µg/mL	> 16 µg/mL	> 16 µg/mL	> 16 µg/mL	
Cn1nnnc1-c1cc(-c2ccc(F)cc2)sc1-c1ccc(F)cc1 [DNM-133, 5-(2,5-Bis(4-fluorophenyl)thiophen-3-yl)-1-methyl-1H-tetrazole]	> 16 µg/mL	> 16 µg/mL	> 16 µg/mL	> 16 µg/mL	> 16 µg/mL	> 16 µg/mL	> 16 µg/mL	> 16 µg/mL	> 16 µg/mL	> 16 µg/mL	> 16 µg/mL	> 16 µg/mL	
Cn1nnc(-c2cc(-c3ccc(F)cc3)sc2C(=O)O)n1 [DNM-142, 5-(4-Fluoro-phenyl)-3-(2-methyl-2H-tetrazol-5-yl)-thiophene-2-carboxylic acid]	> 16 µg/mL	> 16 µg/mL	> 16 µg/mL	> 16 µg/mL	> 16 µg/mL	> 16 µg/mL	> 16 µg/mL	> 16 µg/mL	> 16 µg/mL	> 16 µg/mL	> 16 µg/mL	> 16 µg/mL	
Cn1nnnc1-c1cc(-c2ccc(F)cc2)sc1C(=O)O [DNM-143, 5-(4-Fluoro-phenyl)-3-(1-methyl-1H-tetrazol-5-yl)-thiophene-2-carboxylic acid]	> 8 µg/mL	> 8 µg/mL	> 8 µg/mL	> 8 µg/mL	> 8 µg/mL	> 8 µg/mL	> 8 µg/mL	> 8 µg/mL	> 8 µg/mL	> 8 µg/mL	> 8 µg/mL	> 8 µg/mL	
COC(=O)c1sc(-c2ccc(F)cc2)cc1-c1nnn(C)n1 [DNM-144, 5-(4-fluoro-phenyl)-3-(2-methyl-2H-tetrazol-5-yl)-thiophene-2-carboxylic acid methyl ester]	> 8 µg/mL	> 8 µg/mL	> 8 µg/mL	> 8 µg/mL	> 8 µg/mL	> 8 µg/mL	> 8 µg/mL	> 8 µg/mL	> 8 µg/mL	> 8 µg/mL	> 8 µg/mL	> 8 µg/mL	
COC(=O)c1sc(-c2ccc(F)cc2)cc1-c1nnnn1C [DNM-145, 5-(4-Fluoro-phenyl)-3-(1-methyl-1H-tetrazol-5-yl)-thiophene-2-carboxylic acid methyl ester]	> 4 µg/mL	> 4 µg/mL	> 4 µg/mL	> 4 µg/mL	> 4 µg/mL	> 4 µg/mL	> 4 µg/mL	> 4 µg/mL	> 4 µg/mL	> 4 µg/mL	> 4 µg/mL	> 4 µg/mL	
